# Assay results published in publication PMC7155171, “Probing the Open Global Health Chemical Diversity Library for Multistage-Active Starting Points for Next-Generation Antimalarials” (ACS Infectious Diseases, 2020).
# Where two headings read alike, the source gives them in different places.
# System: P. falciparum Dd2 (PfLuc) line expressing firefly luciferase, asexual blood stage
# Assay: microbe, parasite or virus in culture
# Type: cell-based, Plasmodium falciparum
# Conditions: Plasmodium falciparum
# [1] = DD2, 8-pt dose response, 96hr, read-out: P. falciparum Luciferase ABS 8-pt Reconfirmation Dose Response (96hr): IC50
# [2] = DD2, 8-pt dose response, 96hr, read-out: P. falciparum Luciferase ABS 8-pt Reconfirmation Dose Response (96hr): Maximum inhibition (%)
# [3] = DD2, read-out: P. falciparum Luciferase ABS 11-pt Reconfirmation Dose Response (48hr): IC50, 11-pt dose response, 48hr
# [4] = DD2, 11-pt dose response, 48hr, read-out: P. falciparum Luciferase ABS 11-pt Reconfirmation Dose Response (48hr): Maximum inhibition (%)
# [5] = DD2, 11-pt dose response, 96hr, read-out: P. falciparum Luciferase ABS 11-pt Reconfirmation Dose Response (96hr): IC50
# [6] = DD2, 11-pt dose response, 96hr, read-out: P. falciparum Luciferase ABS 11-pt Reconfirmation Dose Response (96hr): Maximum inhibition (%)
SMILES,IC50 [1] [µM],Emax [2] [%],other results
O=S(=O)(NC[C@H]1C[C@@H]2CCN1C[C@@H]2CN1CCCC1)c1ccc(Cl)cc1 [DDD01024774],1.46,91,
CN(C[C@H]1CN2CC[C@H]1C[C@@H]2CNC(=O)c1ccco1)c1ccccc1 [DDD01024849],1.76,83.2,
O=C([C@@H]1Cc2[nH]cnc2CN1Cc1cc2ccccc2o1)N1CCCC1 [DDD01024952],1.42,91,
CCC1CN(CC(=O)NCCN2CCCCCC2)c2ccccc2S1 (stereo not drawn) [DDD01025851],1.73,82.5,
CN1CC[C@H](N(Cc2ccccc2)CC2CC2)C[C@H](O)C1 [DDD01026225],1.29,82,
CC(C)n1ncc2c1NC(=O)CC21C(=O)Nc2c(Cl)ccc(Cl)c21 (stereo not drawn) [DDD01027128],1.59,94.1,
CN1CCn2c(-c3cccc(F)c3)cnc2C12CCN(CC1CC1)CC2 [DDD01030549],1.2,84.4,
c1cncc(-c2ccc3c(c2)CCC32CCNCC2)c1 [DDD01031368],1.35,95.6,
Cc1ccc(CN2CCCC3(CCN(Cc4ccoc4)CC3)C2)cc1 [DDD01031609],1.16,88.7,IC50 [3]: 3.17 µM; Emax [4]: 88.7%; IC50 [5]: 0.742 µM; Emax [6]: 98.3%
c1ccc(NC[C@@H]2CCC[C@@H]3CN(Cc4cccnc4)C[C@@H]32)nc1 [DDD01032334],1.72,81.5,
COc1cccc(-n2ccc3nc(N4CCCC4)ncc3c2=O)c1 [DDD01034957],1.6,95.4,IC50 [3]: > 4.16 µM; Emax [4]: 13.2%; IC50 [5]: 0.531 µM; Emax [6]: 98.6%
Fc1ccc(Sc2ccccc2CNC2=NCCN2)cc1 [DDD01035542],1.81,81.8,
Fc1ccccc1Sc1ccccc1CNC1=NCCN1 [DDD01035543],1.57,83.6,
O=C(Cn1ccc2ccc(Br)cc21)NC[C@@H]1CCCN2CCCC[C@H]12 [DDD01035644],2.57,81.8,
c1cnc(N2CCC3(CC2)CN(CC2CC2)c2ccccc23)nc1 [DDD01036239],1.74,90.6,
COc1ccc(CN2CC[C@@H](O)[C@@H]2Cc2ccccc2)cc1 [DDD01037044],1.83,77.4,
CCc1ccc(-c2cc(C(F)(F)F)nc(N3CCC(N)CC3)n2)cc1 [DDD01037626],1.72,93.8,IC50 [3]: 1.86 µM; Emax [4]: 98.9%; IC50 [5]: 0.828 µM; Emax [6]: 100%
Cc1cc(C)n(CCCn2cncc2-c2ccc3c(c2)CC(C)N3C)n1 (stereo not drawn) [DDD01056528],1.7,94.8,
Cc1nn(C)c(C)c1CCn1cncc1-c1ccc2c(c1)CC(C)N2C (stereo not drawn) [DDD01056530],1.85,94.7,
CN(C)CCn1nc(C2CCN(Cc3ccccc3)C2)c2cccnc21 (stereo not drawn) [DDD01056665],1.99,70.9,
Cc1cc(Cc2cccc(C(F)(F)F)c2)cc(C2CCCNC2)n1 (stereo not drawn) [DDD01057885],1.24,92,IC50 [3]: 4.53 µM; IC50 [5]: 0.958 µM; Emax [6]: 100%
COc1cccc(OC)c1CNC(Cc1ccsc1)c1ccc(C)cn1 (stereo not drawn) [DDD01058770],1.56,,
CCn1cncc1CN1CCN(CC2(c3ccc(C)cc3)CC2)CC1 [DDD01059073],1.26,85.6,
CN(C(=O)c1ccon1)[C@@H]1CCC[C@@H](Oc2ccccc2)[C@@H]1O [DDD01059734],1.12,85.7,
CN1CCCCC1c1ncc2c(n1)CCN(Cc1ccc(F)cc1)C2 (stereo not drawn) [DDD01059924],1.65,84.5,
Cc1cc(C)c2cc(CNC3CCCCC3)c3nn(C)c(=O)n3c2c1 [DDD01060652],1.15,88.2,
Cc1cnccc1CN1CC[C@H](Oc2cccc(F)c2)[C@@](C)(O)C1 [DDD01060866],1.79,91.8,
CCCOc1ccccc1CN[C@@H]1CCC[C@H]1Cc1cc(C)no1 [DDD01060989],2.71,79.8,
COc1cccc([C@H]2CN(C(C)=O)[C@@H]3CCN(Cc4ccsc4)C[C@H]23)c1 [DDD01061089],1.31,82.2,
CCC(CC)(CN)NC(C)c1ccccc1 (stereo not drawn) [DDD01061915],,,"IC50 (DD2, read-out: CDD P. falciparum Luciferase ABS 11-pt Reconfirmation Dose Response (48hr): IC50 (μM), 11-pt dose response, 48hr): > 12.5 µM; IC50 (DD2, 8-pt dose response, 96hr, read-out: CDD P. falciparum Luciferase ABS 8-pt Reconfirmation Dose Response (96hr): IC50): 1.02 µM; Emax (DD2, 8-pt dose response, 96hr, read-out: CDD P. falciparum Luciferase ABS 8-pt Reconfirmation Dose Response (96hr): Maximum inhibition (%)): 85.9%; Emax (DD2, 11-pt dose response, 48hr, read-out: CDD P. falciparum Luciferase ABS 11-pt Reconfirmation Dose Response (48hr): Maximum inhibition (%)): 49.2%; IC50 (DD2, 11-pt dose response, 96hr, read-out: CDD P. falciparum Luciferase ABS 11-pt Reconfirmation Dose Response (96hr): IC50): > 1.39 µM; Emax (DD2, 11-pt dose response, 96hr, read-out: CDD P. falciparum Luciferase ABS 11-pt Reconfirmation Dose Response (96hr): Maximum inhibition (%)): 87.7%"
